Data as given in PubChem BioAssay (NCI).
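96-well plates; 48 h exposure; 5 concentrations. Endpoints by linear interpolation between flanking doses. Not reached: highest tested concentration assigned. TGI: concentration producing complete growth inhibition.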

What was measured:
Experiment in all cases: inhibition of tumour cell growth, NCI panel, 48 h
[1] = system: SF-268 CNS
[2] = system: MOLT-4 leukemia
[3] = system: LOX IMVI melanoma
[4] = system: MDA-MB-231 breast
[5] = system: MALME-3M melanoma
[6] = system: UACC-257 melanoma
[7] = system: BT-549 breast
[8] = system: NCI/ADR-RES ovarian
[9] = system: HT29 colon
[10] = system: HCT-116 colon
[11] = system: NCI-H226 lung
[12] = system: HCT-15 colon
[13] = system: SR leukemia
[14] = system: M14 melanoma
[15] = system: CCRF-CEM leukemia
[16] = system: RXF 393 renal
[17] = system: PC-3 prostate
[18] = system: RPMI-8226 leukemia
[19] = system: OVCAR-8 ovarian
[20] = system: COLO 205 colon
[21] = system: K-562 leukemia
[22] = system: 786-0 renal
[23] = system: IGROV1 ovarian
[24] = system: MDA-MB-435
[25] = system: TK-10 renal
[26] = system: HS 578T breast
[27] = system: OVCAR-3 ovarian
[28] = system: DU-145 prostate
[29] = system: U251 CNS
[30] = system: NCI-H23 lung
[31] = system: SN12C renal
[32] = system: ACHN renal
[33] = system: SNB-75 CNS
[34] = system: MDA-N
[35] = system: NCI-H522 lung
[36] = system: NCI-H460 lung
[37] = system: HCC-2998 colon
[38] = system: SK-MEL-28 melanoma
[39] = system: KM12 colon
[40] = system: A498 renal
[41] = system: UO-31 renal
[42] = system: HOP-62 NSCLC
[43] = system: SK-OV-3 ovarian
[44] = system: SNB-19 CNS
[45] = system: EKVX NSCLC
[46] = system: A549 NSCLC
[47] = system: CAKI-1 renal
[48] = system: MCF7 breast
[49] = system: SW-620 colon
[50] = system: SK-MEL-5 melanoma
[51] = system: SF-539 CNS
[52] = system: SK-MEL-2 melanoma
[53] = system: UACC-62 melanoma
[54] = system: SF-295 CNS
[55] = system: HOP-92 NSCLC
[56] = system: OVCAR-4 ovarian
[57] = system: OVCAR-5 ovarian
[58] = system: HL-60(TB) leukemia

CCOC(=O)CC1c2ccc(O)cc2OC(=O)C1c1ccc(N)cc1 (configuration not stated)
TGI [1]: > 100 µM | TGI [2]: > 100 µM | TGI [3]: > 100 µM | TGI [4]: > 100 µM | TGI [5]: > 100 µM | TGI [6]: > 100 µM | TGI [7]: > 100 µM | TGI [8]: > 100 µM | TGI [9]: > 100 µM | TGI [10]: > 100 µM | TGI [11]: > 100 µM | TGI [12]: > 100 µM | TGI [13]: > 100 µM | TGI [14]: > 100 µM | TGI [15]: > 100 µM | TGI [16]: > 100 µM | TGI [17]: > 100 µM | TGI [18]: > 100 µM | TGI [19]: > 100 µM | TGI [20]: > 100 µM | TGI [21]: > 100 µM | TGI [22]: > 100 µM | TGI [23]: > 100 µM | TGI [24]: > 100 µM | TGI [25]: > 100 µM | TGI [26]: > 100 µM | TGI [27]: > 100 µM | TGI [28]: > 100 µM | TGI [29]: > 100 µM | TGI [30]: > 100 µM | TGI [31]: > 100 µM | TGI [32]: > 100 µM | TGI [33]: > 100 µM | TGI [34]: > 100 µM | TGI [35]: > 100 µM | TGI [36]: > 100 µM | TGI [37]: > 100 µM | TGI [38]: > 100 µM | TGI [39]: > 100 µM | TGI [40]: > 100 µM | TGI [41]: > 100 µM | TGI [42]: > 100 µM | TGI [43]: > 100 µM | TGI [44]: > 100 µM | TGI [45]: > 100 µM | TGI [46]: > 100 µM | TGI [47]: > 100 µM | TGI [48]: > 100 µM | TGI [49]: > 100 µM | TGI [50]: > 100 µM | TGI [51]: > 100 µM | TGI [52]: > 100 µM | TGI [53]: > 100 µM | TGI [54]: > 100 µM

Nc1nc(Cl)c(/C=N\O)c(NCC2(CO)CC(=O)C2)n1
TGI [1]: > 100 µM | TGI [2]: > 100 µM | TGI [3]: > 100 µM | TGI [55]: > 100 µM | TGI [4]: > 100 µM | TGI [5]: > 100 µM | TGI [6]: > 100 µM | TGI [7]: > 100 µM | TGI [8]: > 100 µM | TGI [9]: > 100 µM | TGI [10]: > 100 µM | TGI [11]: > 100 µM | TGI [12]: > 100 µM | TGI [15]: > 100 µM | TGI [16]: > 100 µM | TGI [17]: > 100 µM | TGI [18]: > 100 µM | TGI [19]: > 100 µM | TGI [56]: > 100 µM | TGI [20]: > 100 µM | TGI [21]: > 100 µM | TGI [22]: > 100 µM | TGI [23]: 70.4 µM | TGI [24]: > 100 µM | TGI [25]: > 100 µM | TGI [26]: 55.6 µM | TGI [57]: > 100 µM | TGI [27]: > 100 µM | TGI [28]: > 100 µM | TGI [29]: > 100 µM | TGI [30]: > 100 µM | TGI [31]: > 100 µM | TGI [32]: > 100 µM | TGI [33]: > 100 µM | TGI [34]: > 100 µM | TGI [35]: > 100 µM | TGI [36]: > 100 µM | TGI [37]: > 100 µM | TGI [38]: > 100 µM | TGI [39]: 82.1 µM | TGI [40]: > 100 µM | TGI [41]: > 100 µM | TGI [42]: > 100 µM | TGI [44]: > 100 µM | TGI [45]: > 100 µM | TGI [46]: > 100 µM | TGI [47]: > 100 µM | TGI [48]: > 100 µM | TGI [49]: > 100 µM | TGI [50]: > 100 µM | TGI [51]: > 100 µM | TGI [58]: > 100 µM | TGI [54]: > 100 µM
